Activity calls are given as the source filed them. No cut-off for these calls is given here.
Assays:
Pancreatic acinar cell [1] = test: (§1) Cytoprotective activity against sodium taurocholate-induced necrosis in Balb/C mouse pancreatic acinar cells at 0.5 mM after 40 mins by propidium iodide/Hoechst 33342 staining-based fluorescence microscopic method; assay type: functional
Pancreatic acinar cell [2] = test: Cytoprotective activity against sodium taurocholate-induced necrosis in Balb/C mouse pancreatic acinar cells at 1 mM after 40 mins by propidium iodide/Hoechst 33342 staining-based fluorescence microscopic method; assay type: functional
[3] = as §1; assay type: functional, Pancreatic acinar cell
[4] = Cytoprotective activity against sodium taurocholate-induced necrosis in Balb/C mouse pancreatic acinar cells assessed as decrease in intracellular reactive oxygen species generation at 0.5 mM measured for 20 mins by H2-DCFDA probe-based fluorescence assay relative to control; assay type: functional, Pancreatic acinar cell; parameters: scale not given: the % may be the effect or the level left
[5] = Cytotoxicity against Balb/C mouse pancreatic acinar cells at 1 mM after 40 mins by propidium iodide/Hoechst 33342 staining-based fluorescence microscopic method; conditions: pancreatic acinar cell, 1000 µM
[6] = Cytoprotective activity against sodium taurocholate-induced necrosis in Balb/C mouse pancreatic acinar cells assessed as intracellular ATP production at 0.5 mM measured at 40 mins by luminescence assay (reference value: 21.5%); assay type: functional, Pancreatic acinar cell
[7] = Cytoprotective activity against sodium taurocholate-induced necrosis in Balb/C mouse pancreatic acinar cells assessed as intracellular ATP production at 0.5 mM measured at 20 mins by luminescence assay (reference value: 39.9%); assay type: functional, Pancreatic acinar cell
Pancreatic acinar cell [8] = test: Cytoprotective activity against sodium taurocholate-induced necrosis in Balb/C mouse pancreatic acinar cells at 5 mM after 40 mins by propidium iodide/Hoechst 33342 staining-based fluorescence microscopic method; assay type: functional

Row | Compound | Activity (Pancreatic acinar cell [1]) | other results
1 | COc1ccc2c(c1O)-c1c(cc(O)cc1OC)CC2 | inactive | –
2 | COc1c(O)cc(CCc2ccccc2)cc1O | inactive | –
3 | COc1ccc(CCc2cc(O)c(OC)c(O)c2)cc1 | inactive | –
4 | COc1cc(CC[C@@H](O)C[C@H](O)CCc2ccc(O)c(OC)c2)ccc1O | Active | –
5 | COc1cc(O)cc(CCc2ccc(OC)c(O)c2)c1 | inactive | –
6 | Oc1ccc(CC[C@@H](O)C[C@H](O)CCc2ccc(O)c(O)c2)cc1 | – | Activity (Pancreatic acinar cell [2]): inactive; Activity [3]: 19%; Activity [4]: 27.9%; Activity [5]: Toxic; Activity [6]: 38.3%; Activity [7]: 59.4%
7 | Cn1c(=O)c2c(ncn2C)n(C)c1=O | – | Activity (Pancreatic acinar cell [8]): Active
8 | COc1cc(CC[C@@H](O)C[C@H](O)CCc2ccc(O)cc2)ccc1O | Active | –
9 | Oc1ccc(CC[C@@H](O)C[C@H](O)CCc2ccc(O)cc2)cc1 | Active | –

Source: ChEMBL document CHEMBL3997834, “Phenolic compounds isolated from Dioscorea zingiberensis protect against pancreatic acinar cells necrosis induced by sodium taurocholate” (Bioorg Med Chem Lett, 2017)
